In brackets after ≈: the same amount, converted by molar mass. Entries after “also recorded” stand apart in the source; their conditions may differ. Structures can show the parent of a compound that is named as a salt.
What was measured:
[1] = tested on: L. donovani L82; assay: In vivo assay, murine visceral model of leishmaniasis; design: species or system Leishmania donovani; conditions: BALB/c mice; for % inhibition ± S.E.M.: Table 4
[2] = tested on: L. donovani axenic amastigote-like parasites; assay: Axenic amastigote assay (CellTiter 96 tetrazolium dye growth assay); type: cell-based; conditions: 72 hours, 37° C., pH 5.5, concentration that inhibited parasite growth by 50%
Procedure: The growth susceptibilities of L. donovani axenic amastigote-like parasites to the candidate compounds were measured in a three day assay using the tetrazolium dye-based CellTiter 96 Aqueous Non-Radioactive Cell Proliferation Assay Kit (Promega, Madison, Wis.) according to Werbovetz, K., et al. (1999) Mol. Biochem. Parasitol. 98:53-65, which is herein incorporated by reference. Pentamidine, at a starting concentration of 100 μM, and serial dilutions thereof were used as controls. Specifically, L. donovani axenic amastigotes, as described by Joshi, M. et al. (1993) Mol. Biochem. Parasitol. 58:345-354, which is herein incorporated by reference, were seeded at 10^6 cells/ml in 96-well flat-bottomed plates (Costar, Cambridge, Mass.) and maintained as axenic amastigote-like forms by serial passage at 37° C. in a humid atmosphere comprising 5% CO2 using a slightly modified potassium-based version of the medium described by Joshi, M. et al. (1993) in the presence or absence of a given candidate compound. The medium comprised 15 mM KCl, […] KH2PO4, 10 mM K2HPO4, 0.5 mM MgSO4, and 24 mM NaHCO3 to give a final potassium concentration of […]. The medium was supplemented with 20% fetal bovine serum and was brought to pH 5.5. The final volume in each well was 60 μl. The plates were incubated at 37° C. for 72 hours, then 12 μl of the aqueous CellTiter solution from the kit (Promega, Madison, Wis.) was added to each well according to the instructions of the manufacturer. The plates were returned to the incubator for about 2 to about 3 hours. Then the absorbance of each well was measured at 490 nm using a SpectraMax Plus microplate reader (Molecular Devices, Sunnyvale, Calif.).
The results for each candidate compound may be found in the FIG. 1. The IC50 values (the concentration of the agent that inhibited parasite growth by 50%) for each candidate compound were determined for axenic amastigotes with the aid of the program SoftMax Pro (Molecular Devices, Sunnyvale, Calif.) using the following dose response equation: y=((a−d)/1+(x/c)^b)+d, wherein x=drug concentration; y=absorbance at 490 nm; a=upper asymptote; b=slope; c=IC50; and d=lower asymptote. FIG. 2 is the graphical data obtained for compound 1DWB667 as an example.

[3] = tested on: L. mexicana infected macrophages; assay: Infected macrophage assay, L. mexicana; type: cell-based; conditions: for Macrophage IC50 L. mexicana: J774.G8 mouse macrophages, 72 hours, 33° C., number of infected macrophages inhibited by 50%
Procedure: The susceptibilities of L. mexicania infected macrophages to candidate compounds were determined by the following assay.
(§1) A one week old, confluent culture of J774.G8 mouse macrophages was washed three times with Hank's Balanced Salt Solution (HBSS) without calcium and magnesium (Sigma, St. Louis, Mo.). The J774.G8 mouse macrophages are a continuous cell line that have been cited in the literature as supporting continuous and intracellular growth of various Leishmania sp. and they have been used for drug assays against intracellular parasites, Trypanosoma cruzi and Leishmania sp. See Alcina, A., et al. (1988) Antimicrobial Agents & Chemotherapy. 32(9):1412-5; Mendez, S., et al. (1996) International Journal for Parasitology 26(6):619-22; Hodgkinson, V. H., et al. (1996) Experimental Parasitology 83(1):94-105; and Chang, K. P. (1980) Science 209(4462): 1240-42, which are herein incorporated by reference.
(§2) The macrophages were then incubated at 37° C. in a humidified 5% CO2 incubator for 15 minutes with a Trypsin-EDTA (0.05% Trypsin, 0.53 mM EDTA 4Na) solution (GIBCO BRL, Grand Island, N.Y.). The macrophages were then detached with a cell scraper and suspended by vigorous pipetting. The macrophages were then mixed with a late log phase culture of L. mexicana promastigotes to yield a solution comprising about 5×10^5 macrophages per ml and about 25×10^5 promastigotes per ml in DMEM (pH 7.4) supplemented with 10% heat inactivated fetal calf serum comprising penicillin (50 units/ml) and streptomycin (50 μg/ml).
(§3) The macrophage-parasite mixture was then pipetted into 96-well flat-bottom plates (Costar, Cambridge, Mass.) at 200 μl per well. Infection and attachment of the macrophages was allowed to occur over a period of about 48 hours at 33° C. in a humidified 5% CO2 incubator. The wells were washed three times with HBSS to remove extracellular parasites. Each well was then treated with serial dilutions of a given candidate compound in DMEM.
(§4) The treated plate was incubated for about 72 hours at 33° C. in a humidified 5% CO2 incubator. The macrophages in each well were detached into the DMEM used for the incubation by pipetting and scraping with the tip of a microliter pipettor. 75 μl of the cell suspension was transferred to a cytospin funnel and the cells were centrifuged onto microscope slides at 800 rpm for 5 minutes using a Cytospin centrifuge (Shandon, Pittsburgh, Pa.).
(§5) The slides were air dried and then fixed in methanol for 5 seconds. After the methanol evaporated, the slides were stained with 5% Giemsa stain (Fisher, Suwanee, Ga.) in phosphate buffer comprising 3.1 mM potassium phosphate dibasic and 8.3 mM sodium phosphate monobasic for 45 minutes. After thorough washing with flowing tap water, the slides were air dried and then viewed by oil immersion microscopy to determine percentage of infected cells. A cell was considered to be infected if it comprised one or more amastigote with a visible parasite nucleus and kinetoplast. Counting parasites and counting infected cells provided similar results when determining IC50 values.
(§6) The IC50 values (the concentration of the compound that inhibited the number of infected macrophages by 50%) were determined with the software program TableCurve (SPSS Science, Chicago, Ill.) using the following dose-response equation: y=a+b/(1+(x/c)^d), where x=the drug concentration, y=absorbance at 490 nm, a=upper asymptote, b=slope, c=IC50 and d=lower asymptote. FIG. 3 provides the graphical data obtained for compound 1DWB667 as an example.

[4] = tested on: L. donovani infected macrophages; assay: Infected macrophage assay, L. donovani; type: cell-based; conditions: J774.G8 mouse macrophages, 72 hours, 37° C.; number of infected macrophages inhibited by 50%
Excerpt: as §1, §2, §3, §4, §5, §6
The susceptibility of L. donovani infected macrophages to the compounds of the present invention were preformed by a modified protocol for L. mexicana infected macrophages above, wherein all incubations of the parasite infected macrophages were done at 37° C. rather than 33° C. FIG. 4 provides the graphical data for compound 1DWB667 as an example.

[5] = tested on: J774.G8 macrophages; assay: Macrophage toxicity assay (sulforhodamine B); type: cell-based, mouse; conditions: Mus musculus, 72 hours, 37° C., macrophage growth inhibited by 50%
Procedure: The toxicity of the candidate compounds on J774.G8 macrophages was measured using a sulforhodamine B (Molecular Probes, Eugene, Oreg.) based dye assay.
Specifically, a confluent culture of macrophages in a T75 culture flask was harvested by replacing the growth medium (DMEM supplemented with 10% heat inactivated fetal calf serum, 50 units/ml penicillin, and 50 μg/ml streptomycin) with 25 ml of fresh medium and scraping the cells from the bottom of the culture flask. Cell clumps were broken up by gentle pipetting and the cell suspension was transferred to a 50 ml conical centrifuge tube. The cells were then pelleted by centrifugation at 1,000 rpm at 4° C. for 5 minutes. The supernatant was then removed and the cells were resuspended in 15 ml DMEM.
After counting an aliquot of the cell suspension, the macrophages were then diluted to about 1×10^5 cells/ml in DMEM and 180 μl was added to each well of a 96 well tissue culture plate Then 20 μl serial dilutions of a given candidate compound was added. The plate was then placed in a 37° C. humidified 5% CO2 incubator and incubated for 72 hours. Then 50 μl of 50% TCA was added to each well to fix the proteins. The plate was then incubated for at least 1 hour at 4° C.
The liquid contents of the wells were discarded and the wells were washed five times with 200 μl of distilled water. After the final wash the plate was allowed to air dry for 20 minutes. 100 μl of the sulforhodamine B dye (0.4% dye in 1% acetic acid) was added. The plate was then incubated at room temperature for 20 minutes. After discarding the dye solution, the wells were washed five times with 200 μl of 1% acetic acid and then allowed to air dry for 20 minutes. At this time, 50 μl of 10 mM TRIS base was added. After a few minutes of incubation, the absorbance of each well at 490 nm was measured in a SpectraMax Pro microplate reader (Molecular Devices, Sunnyvale, Calif.).
The IC50 values for each candidate compound (the concentration of the agent that inhibited macrophage growth by 50%) were determined for the macrophages with the aid of the program SoftMax Pro (Molecular Devices, Sunnyvale, Calif.) using the following dose response equation: y=((a−d)/1+(x/c)^b)+d, where x=drug concentration; y=absorbance at 490 nm; a=upper asymptote; b=slope; c=IC50; and d=lower asymptote. FIG. 5 provides the graphical data for compound 1DWB667 as an example.

c1cc(-c2ccc(-c3ccc(N=NC4CCCCC4)cc3)o2)ccc1N=NC1CCCCC1 [DB656, 2,5-Bis[4-(cyclohexylimino)aminophenyl]furan]
melting point: 242 to 243 °C (dec.)

N=C(N)Nc1ccc(-c2ccc(-c3ccc(NC(=N)N)cc3)s2)cc1 [DB686, 2,5-Bis(4-guanidinophenyl)thiophene]
% inhibition ± S.E.M. ([1]; 10 mg/kg p.o. × 5): 34.91 ± 8.04%

2,5-Bis[2,6-dimethyl-4-(2-pyridylimino)aminophenyl]furan [DB 714]
Axenic Amastigote IC50 L. donovani [2]: 0.290 µg/mL
Macrophage IC50 L. mexicana [3]: 0.359 µg/mL
Macrophage IC50 L. donovani [4]: 0.246 µg/mL

N=C(N)c1ccc(OCCCCCOc2ccc(C(=N)N)cc2)cc1 [Pentamidine, reference compound]
IC50 ([2]; Leishmania donovani): 1.22 µg/mL (≈ 3.58 µM)
IC50 ([3]; Leishmania mexicana, Macrophage, in Mus musculus, 72 h, read-out: Macrophage IC50 L. mexicana): > 12.5 µg/mL
reduction of parasite burden in L. mexicana infected macrophages (in words) ([3]; in vitro, cutaneous strain): ineffective in the macrophage model; also recorded: did not reduce the parasite burden
IC50 [5]: 9.96 µg/mL (≈ 29.3 µM)
% Inhib. ± SEM ([1]; Table 3, 5 mg/kg i.v. × 5 (doses reduced by half, see footnotes a, c)): 30.5 ± 5.0%
% inhibition ± S.E.M. ([1]; 4 mg/kg i.v. × 5): 16.96 ± 3.3%
% Inhib. ± SEM ([1]; Table 5, 4 mg/kg i.v. × 5): 30.6 ± 5.2%

C[C@@H]1[C@H](O)[C@@H](C)/C=C/C=C/C=C/C=C/C=C/C=C/C=C/[C@H](O[C@@H]2O[C@H](C)[C@@H](O)[C@H](N)[C@@H]2O)C[C@@H]2O[C@](O)(C[C@@H](O)C[C@@H](O)[C@H](O)CC[C@@H](O)C[C@@H](O)CC(=O)O[C@H]1C)C[C@H](O)[C@H]2C(=O)O [Amphotericin B, reference compound]
Axenic Amastigote IC50 L. donovani [2]: 0.342 µg/mL
Macrophage IC50 L. mexicana [3]: 0.032 µg/mL
Macrophage IC50 L. donovani [4]: 0.024 µg/mL

N=C(Nc1ccc(-c2ccc(-c3ccc(NC(=N)c4ccccc4)cc3)o2)cc1)c1ccccc1 (as salt: hydrochloride) [DB613, 2,5-Bis[4-(benzimidoylamino)phenyl]furan]
melting point: 312 to 314.5 °C

2,5-Bis[2-methyl-4-(2-quinolylimino)aminophenyl]furan [DB716]
Axenic Amastigote IC50 L. donovani [2]: about 10 μg/ml

Reference: US6706754B2, “Reversed amidines and methods of using for treating, preventing, or inhibiting leishmaniasis” (The United States of America as represented by the …, priority 2000, dated 2004)
